Data from PubChem BioAssay AID2060489 (Molecular Pharmacology Branch, DTP, NCI, 2025).
Values joined by “and” are separate entries in the source; they are usually repeats but may differ in a detail not shown here. Equal entries are not always repeated.

Test system: 922993-354-T-J3-PDC complex spheroids, viability
Experiment: Anticancer human tumor 922993-354-T-J3-PDC patient-derived endometrial carcinoma cell line growth inhibition [GQUAD]
Conditions: for viability, T/C: stronger effect = lower value; active = viability on the fitted dose curve at most 10% of control; inactive = the rest
Excerpt: DNA G-quadruplex Stabilizer Agents in Combinations in Complex Spheroids
A high-throughput screen of multi-cell type tumor spheroids was designed to identify active combinations of DNA G-quadruplex stabilizer agents and targeted small molecules. Complex spheroids include a stromal component modeled by human endothelial cells (HUVEC) and fibroblasts modeled by human mesenchymal stem cells (MSCs). The concentration ranges selected for each drug and investigational agent were based upon clinically achievable concentrations if the clinical Cmax of the agent was known.
Compounds. The drugs and investigational agents: pidnarulex (CX-5461; NSC782164), APTO-253 (NSC789042), BRACO-19 (NSC847499), peposertib (NSC802822), ceralasertib (NSC780249), elimusertib (NSC800525), camonsertib (NSC841442), AZD-1390 (NSC803789), olaparib (NSC753686), talazoparib (NSC767125), ART-558 (NSC835418), sotorasib (NSC818433), MRTX-1133 (NSC836407), SN-38 (NSC673596), topotecan (NSC609699), etoposide (NSC141540), doxorubicin (NSC123127), gemcitabine (NSC613327), 5-fluorouracil (NSC19893), paclitaxel (NSC125973), vemurafenib (NSC761431), panobinostat (NSC761190), R-306465 (JNJ-16241199; NSC773264), adavosertib (NSC754352), TP-3654 (NSC805149), carboplatin (NSC241240), KSQ-4279 (NSC840948), and staurosporine (NSC755774) were obtained from the National Cancer Institute (NCI) Developmental Therapeutics Program Chemical Repository (34). The FDA-approved anticancer drug set is available from the NCI Developmental Therapeutics Program. […] The stock solutions were prepared in dimethyl sulfoxide (DMSO, Sigma-Aldrich, St. Louis, MO, cat. D2650) at 800-fold the tested concentration and stored at -70 degrees C prior to their use. All drugs and investigational agents were tested over a range starting from a high concentration at or near the clinical Cmax and decreasing in half-log increments. If the clinical Cmax for an agent had not been determined, the highest concentration tested was 10 microM.
2.3 Cell Culture. All cells were maintained in an incubator at 37 degrees C and 5% CO2 with 95% humidity. The PDC lines were cultured according to standard operating procedures established by the NCI PDMR. All PDCs were thawed and cultured in Matrigel-coated flasks prepared with a working solution of 1X Ham's F-12 nutrient mix, without supplementation (Invitrogen, cat. 11765054), 100 U/mL penicillin-streptomycin (Invitrogen, cat. 15140122), and 2.5% Matrigel (Corning Inc., cat. 354248) for the first three passages. The 857933-349-R-J2-PDC line was cultured in 6C/Colon 1B media, which includes advanced DMEM/F-12 (Thermo Fisher Scientific, cat. 12634028), 10 mM HEPES (Thermo Fisher Scientific, cat. 15630080), 1X GlutaMAX supplement (Thermo Fisher Scientific, cat. 35050061), 0.1 mg/mL primocin (InvivoGen, cat. ant-pm-2), 10% defined fetal bovine serum, heat inactivated (HyClone Laboratories Inc., cat. SH30070.03HI), 50% L-WRN conditioned media (ATCC, cat. CRL-3276), 1.25 mM N-Acetyl-L-cysteine (Sigma-Aldrich, cat. A9165), 10 mM nicotinamide (Sigma-Aldrich, cat. N0636), 1X B-27 supplement (Thermo Fisher Scientific, cat. 17504044), 1X N-2 supplement (Thermo Fisher Scientific, cat. 17502048), 10 microM Y-27632 dihydrochloride (Tocris Bioscience, cat. 1254), and 50 ng/mL human EGF recombinant protein (Thermo Fisher Scientific, cat. PHG0311). The 485176-168-R4-J1-PDC line was cultured in Panc media, which includes all 6C/Colon 1B media components plus 100 ng/mL human FGF-10 (Thermo Fisher Scientific, cat. 100-26), 500 nM SB-431542 (Selleckchem, cat. S1067), and gastrin (Tocris, cat. 3006).
[…]

[1] = curve of first compound, second compound 0.0316 µM
[2] = curve of first compound, second compound 0.1 µM
[3] = curve of first compound, second compound 0.316 µM
[4] = curve of first compound, second compound 1 µM
[5] = curve of first compound, second compound 3.16 µM
[6] = curve of first compound, second compound 10 µM
[7] = second compound 0.0316 µM, first compound 0.0316 µM
[8] = second compound 0.0316 µM, first compound 0.1 µM
[9] = second compound 0.0316 µM, first compound 0.316 µM
[10] = second compound 0.0316 µM, first compound 1 µM
[11] = second compound 0.0316 µM, first compound 3.16 µM
[12] = second compound 0.0316 µM, first compound 10 µM
[13] = second compound 0.1 µM, first compound 0.0316 µM
[14] = second compound 0.1 µM, first compound 0.1 µM
[15] = second compound 0.1 µM, first compound 0.316 µM
[16] = second compound 0.1 µM, first compound 1 µM
[17] = second compound 0.1 µM, first compound 3.16 µM
[18] = second compound 0.1 µM, first compound 10 µM
[19] = second compound 0.316 µM, first compound 0.0316 µM
[20] = second compound 0.316 µM, first compound 0.1 µM
[21] = second compound 0.316 µM, first compound 0.316 µM
[22] = second compound 0.316 µM, first compound 1 µM
[23] = second compound 0.316 µM, first compound 3.16 µM
[24] = second compound 0.316 µM, first compound 10 µM
[25] = second compound 1 µM, first compound 0.0316 µM
[26] = second compound 1 µM, first compound 0.1 µM
[27] = second compound 1 µM, first compound 0.316 µM
[28] = second compound 1 µM, first compound 1 µM
[29] = second compound 1 µM, first compound 3.16 µM
[30] = second compound 1 µM, first compound 10 µM
[31] = second compound 3.16 µM, first compound 0.0316 µM
[32] = second compound 3.16 µM, first compound 0.1 µM
[33] = second compound 3.16 µM, first compound 0.316 µM
[34] = second compound 3.16 µM, first compound 1 µM
[35] = second compound 3.16 µM, first compound 3.16 µM
[36] = second compound 3.16 µM, first compound 10 µM
[37] = second compound 10 µM, first compound 0.0316 µM
[38] = second compound 10 µM, first compound 0.1 µM
[39] = second compound 10 µM, first compound 0.316 µM
[40] = second compound 10 µM, first compound 1 µM
[41] = second compound 10 µM, first compound 3.16 µM
[42] = second compound 10 µM, first compound 10 µM
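Note: spheroids exposed to compounds for seven days.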

O=C(NO)c1cnc(N2CCN(S(=O)(=O)c3ccc4ccccc4c3)CC2)nc1 + CN(C)c1ccc(Nc2c3ccc(NC(=O)CCN4CCCC4)cc3nc3cc(NC(=O)CCN4CCCC4)ccc23)cc1
0.689 µM: IC50 [6]
inactive: viability, T/C [7] 107% | viability, T/C [8] 79.2% | viability, T/C [9] 50% | viability, T/C [10] 41.5% | viability, T/C [11] 4.18% | viability, T/C [13] 79.9% | viability, T/C [14] 96.1% | viability, T/C [15] 56.6% | viability, T/C [16] 29.6% | viability, T/C [19] 96.5% | viability, T/C [20] 75% | viability, T/C [21] 60.8% | viability, T/C [22] 33.4% | viability, T/C [23] 4.98% | viability, T/C [25] 76.7% | viability, T/C [26] 76.6% | viability, T/C [27] 54.5% | viability, T/C [28] 34.5% | viability, T/C [31] 88.3% | viability, T/C [32] 95.7% | viability, T/C [33] 80.9% | viability, T/C [34] 34.3% | viability, T/C [37] 101% | viability, T/C [38] 85.6% | viability, T/C [39] 95.3% | viability, T/C [40] 29%
0.682 µM: IC50 [5]
0.448 µM: IC50 [4]
active: viability, T/C [12] 0.41% | viability, T/C [17] 4.22% | viability, T/C [18] 0.4% | viability, T/C [24] 0.4% | viability, T/C [29] 3.3% | viability, T/C [30] 0.44% | viability, T/C [35] 4.89% | viability, T/C [36] 0.4% | viability, T/C [41] 5.63% | viability, T/C [42] 0.55%
0.39 µM: IC50 [1]
0.442 µM: IC50 [3]
0.475 µM: IC50 [2]

CC(=O)O[C@H]1C(=O)[C@@]2(C)[C@H]([C@H](OC(=O)c3ccccc3)[C@]3(O)C[C@H](OC(=O)[C@H](O)[C@@H](NC(=O)c4ccccc4)c4ccccc4)C(C)=C1C3(C)C)[C@]1(OC(C)=O)CO[C@@H]1C[C@@H]2O
6.76 µM and 9.18 µM and > 10 µM: IC50 (curve of compound)
inactive: viability, T/C (compound 0.0316 µM) 109% and 89.5% and 121% | viability, T/C (compound 0.1 µM) 95% and 93% and 85.9% | viability, T/C (compound 0.316 µM) 84.9% and 103% and 93.4% | viability, T/C (compound 1 µM) 111% and 108% and 102% | viability, T/C (compound 3.16 µM) 75.6% and 78.7% and 84.9% | viability, T/C (compound 10 µM) 36.8% and 47.7% and 50%

C=CC(=O)N1CCN(c2nc(=O)n(-c3c(C)ccnc3C(C)C)c3nc(-c4c(O)cccc4F)c(F)cc23)C(C)C1 (stereo not drawn) + CN(C)c1ccc(Nc2c3ccc(NC(=O)CCN4CCCC4)cc3nc3cc(NC(=O)CCN4CCCC4)ccc23)cc1
> 10 µM: IC50 [1] | IC50 [2] | IC50 [3] | IC50 [4] | IC50 [5] | IC50 [6]
inactive: viability, T/C [7] 96.9% | viability, T/C [8] 84.8% | viability, T/C [9] 102% | viability, T/C [10] 104% | viability, T/C [11] 97% | viability, T/C [12] 119% | viability, T/C [13] 109% | viability, T/C [14] 109% | viability, T/C [15] 112% | viability, T/C [16] 94.5% | viability, T/C [17] 128% | viability, T/C [18] 109% | viability, T/C [19] 112% | viability, T/C [20] 120% | viability, T/C [21] 96.7% | viability, T/C [22] 128% | viability, T/C [23] 103% | viability, T/C [24] 104% | viability, T/C [25] 111% | viability, T/C [26] 118% | viability, T/C [27] 99.6% | viability, T/C [28] 125% | viability, T/C [29] 117% | viability, T/C [30] 120% | viability, T/C [31] 107% | viability, T/C [32] 128% | viability, T/C [33] 107% | viability, T/C [34] 139% | viability, T/C [35] 137% | viability, T/C [36] 117% | viability, T/C [37] 115% | viability, T/C [38] 140% | viability, T/C [39] 142% | viability, T/C [40] 137% | viability, T/C [41] 153% | viability, T/C [42] 142%

COc1ncnc(C2CC2)c1-c1ncc2cnn(Cc3ccc(-c4nc(C(F)(F)F)cn4C(C)C)cc3)c2n1
inactive: viability, T/C (compound 0.0316 µM) 91.6% and 114% and 86.8% | viability, T/C (compound 0.1 µM) 87.8% and 92.6% and 89.9% | viability, T/C (compound 0.316 µM) 101% and 104% and 102% | viability, T/C (compound 1 µM) 87.8% and 99.7% and 99.6% | viability, T/C (compound 3.16 µM) 110% and 85.1% and 69.7% | viability, T/C (compound 10 µM) 95.9% and 87.4% and 81.4%
> 10 µM: IC50 (curve of compound)
